Test [1] addresses T1, Human NHE3 (Homo sapiens, UniProt P48764).
T1 construct: expressed in transfected cells; host or cells: Opossum kidney (OK) cells (ATCC), electroporation
T1 sequence (P48764 26-834): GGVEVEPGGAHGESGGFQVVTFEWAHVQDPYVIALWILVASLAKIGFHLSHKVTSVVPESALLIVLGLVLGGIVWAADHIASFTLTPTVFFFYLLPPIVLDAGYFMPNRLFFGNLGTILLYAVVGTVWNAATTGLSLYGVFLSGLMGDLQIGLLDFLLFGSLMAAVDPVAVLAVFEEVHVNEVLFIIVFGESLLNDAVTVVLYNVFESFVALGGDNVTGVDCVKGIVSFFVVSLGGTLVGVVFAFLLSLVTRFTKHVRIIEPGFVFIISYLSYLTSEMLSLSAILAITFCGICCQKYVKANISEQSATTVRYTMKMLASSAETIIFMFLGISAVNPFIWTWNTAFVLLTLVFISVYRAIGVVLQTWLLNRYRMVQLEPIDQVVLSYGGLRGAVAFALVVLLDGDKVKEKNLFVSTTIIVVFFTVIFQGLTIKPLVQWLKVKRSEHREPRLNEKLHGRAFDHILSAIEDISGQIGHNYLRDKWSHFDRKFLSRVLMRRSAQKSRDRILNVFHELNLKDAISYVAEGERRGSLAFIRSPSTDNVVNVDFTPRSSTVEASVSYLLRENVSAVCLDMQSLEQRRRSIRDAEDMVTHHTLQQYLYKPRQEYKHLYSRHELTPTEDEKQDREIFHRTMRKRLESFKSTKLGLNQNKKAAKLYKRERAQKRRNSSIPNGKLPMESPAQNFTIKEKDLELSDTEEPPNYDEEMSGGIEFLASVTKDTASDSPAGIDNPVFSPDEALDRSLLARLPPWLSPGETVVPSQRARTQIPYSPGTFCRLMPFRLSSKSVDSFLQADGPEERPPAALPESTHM
The test is described as follows: Cell-based NHE3 activity under persistent conditions (60 min incubation, washout), human NHE3. As to conditions: Table E5; dihydrochloride salt.

Test [2] has as its target T1, Human NHE3. The test is described as follows: Cell-based NHE3 activity under prompt conditions (OK cells, BCECF pH recovery), human NHE3. Conditions: for pIC50 Prompt: Table E6, NHE3 species not stated; for Prompt Human NHE3 pIC50: prompt conditions. The method, boiled down: (§1)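 OK cells electroporated with rat or human NHE3 were loaded with 5 μM BCECF-AM in NH4Cl-HEPES (pH 7.4) for 30 min at room temperature, then acid-loaded 10 min in Na+-free choline-HEPES.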

The next test has as its target T2, Rat NHE3 (Rattus norvegicus, UniProt P26433).
T2 construct: expressed in transfected cells; host or cells: Opossum kidney (OK) cells (ATCC), electroporation
Briefly: Cell-based NHE3 activity under prompt conditions (OK cells, BCECF pH recovery), rat NHE3. Conditions: for Rat NHE3 pIC50 Prompt: Table E5, 001 free base, 002-005 dihydrochloride salt; for Prompt Rat NHE3 pIC50: prompt conditions. The essentials:
as §1

Test [3] concerns absorption of sodium from the intestinal lumen. The test is described as follows: Inhibition of intestinal sodium absorption: urinary sodium (uNa) 16 h after single oral dose in rats. The class given is in vivo, rat. As to conditions: for UNa (%): urinary Na excretion as % of vehicle; for Urine Na % of control: oral gavage, 16 h post-dose. The method, boiled down: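 Eight-week-old Sprague-Dawley rats (n=6) given single oral gavage of compound or water vehicle in the late afternoon, then kept in metabolic cages with chow and water ad libitum. Urine collected over 16 h; sodium quantified by ion chromatography and expressed as % of vehicle mean, compared by one-way ANOVA with Dunnett's test.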

For test [4], the system named is intestinal phosphate uptake. The test is described as follows: Pharmacodynamic study with 33P oral challenge in normal function rats. Conditions: 10 mg/kg; for Pi uptake after 33P oral challenge: 8 mM Pi with 33P, dihydrochloride salts, FIG. 1A. It counts as in vivo, rat. How it is done:
The compounds identified as Cpds 003, 004, and 005 (from Table E4, as their dihydrochloride salts) were tested for the ability to block intestinal phosphate uptake in rats. Rats were orally challenged with dosing solutions composed of 5 ml/kg (˜1.3 ml) of 8 mM Pi with ^33P and +/−10 mg/kg of test compound. Also included were dosing solutions further composed of either (i) 75 mM glucose+4 mM Ca or (ii) 4 mM Ca.

Test [5] relates to absorption of sodium from the intestinal lumen. Briefly: Fecal form score (FFS) 16 h after oral dose in rats. It counts as in vivo, rat. Conditions: for Fecal Form Score average: oral gavage, 16 h post-dose, scale 1-5. The method, boiled down:
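Eight-week-old Sprague-Dawley rats (n=6) dosed by oral gavage with compound or water vehicle between 4 and 5 PM, then housed in metabolic cages with food and water ad libitum. At 16 h, fecal form scored 1 (normal pellet) to 5 (liquid streams) by two observers; group mean reported.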

In another test the target is NHE-1 (Homo sapiens, UniProt P19634). Briefly: NHE isoform inhibition, Table 2 adapted from Masereel et al.: NHE-1, species not marked. The class given is biochemical. As to conditions: from Table 2 values. An excerpt:
Shown below are examples of various NHE binding small molecules and their selectivity across the NHE-1, -2 and -3 isoforms. (See, e.g., B. Masereel et al., An Overview of Inhibitors of Na+/H+ Exchanger, European J. of Med. Chem., 38, pp. 547-554 (2003), the entire contents of which is incorporated by reference here for all relevant and consistent purposes). […] It is thus possible to engineer NHE3 binding selectivity into a chemical series optimized for potency against another antiporter isoform; that is, the inhibitor classes exemplified in the art may be suitably modified for activity and selectivity against NHE3 (or alternatively NHE-2 and/or NHE-8), as well as being optionally modified to be rendered substantially impermeable or substantially systemically non-bioavailable.

For test [6], the system named is phosphorus and calcium levels in the urine of rats. Briefly: Urinary excretion of phosphate and calcium in rats (16 h overnight urine). It counts as in vivo, rat. Conditions: rats, oral gavage, 16 h post-dose.

The results in this text go back to patent US20240366589A1, “NHE3-BINDING COMPOUNDS AND METHODS FOR INHIBITING PHOSPHATE TRANSPORT” (Ardelyx, Inc., priority 2013, published 2024).

T2 sequence (P26433 29-831): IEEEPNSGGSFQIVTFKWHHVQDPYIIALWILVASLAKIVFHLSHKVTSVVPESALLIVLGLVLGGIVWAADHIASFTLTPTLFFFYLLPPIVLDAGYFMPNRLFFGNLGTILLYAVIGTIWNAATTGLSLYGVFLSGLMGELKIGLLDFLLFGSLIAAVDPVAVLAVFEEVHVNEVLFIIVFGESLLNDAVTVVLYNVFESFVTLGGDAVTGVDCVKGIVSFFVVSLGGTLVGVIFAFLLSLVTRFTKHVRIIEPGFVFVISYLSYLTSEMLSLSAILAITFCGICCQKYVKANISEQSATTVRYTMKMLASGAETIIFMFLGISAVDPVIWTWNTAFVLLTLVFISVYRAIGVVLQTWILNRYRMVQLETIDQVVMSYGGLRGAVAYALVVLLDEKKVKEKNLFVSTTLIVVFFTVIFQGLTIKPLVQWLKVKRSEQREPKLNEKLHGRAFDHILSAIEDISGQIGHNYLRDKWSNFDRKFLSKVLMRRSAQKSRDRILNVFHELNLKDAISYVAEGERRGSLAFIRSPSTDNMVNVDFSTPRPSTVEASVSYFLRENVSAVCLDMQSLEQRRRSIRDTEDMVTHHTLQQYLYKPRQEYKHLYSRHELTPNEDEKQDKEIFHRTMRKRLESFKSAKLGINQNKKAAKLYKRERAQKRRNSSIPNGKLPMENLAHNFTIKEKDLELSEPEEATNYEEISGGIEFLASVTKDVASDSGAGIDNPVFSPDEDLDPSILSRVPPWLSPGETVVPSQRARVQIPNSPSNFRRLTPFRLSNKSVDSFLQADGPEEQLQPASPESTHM
Chain of NHE-1 (P19634 whole entry, species assumed, canonical isoform): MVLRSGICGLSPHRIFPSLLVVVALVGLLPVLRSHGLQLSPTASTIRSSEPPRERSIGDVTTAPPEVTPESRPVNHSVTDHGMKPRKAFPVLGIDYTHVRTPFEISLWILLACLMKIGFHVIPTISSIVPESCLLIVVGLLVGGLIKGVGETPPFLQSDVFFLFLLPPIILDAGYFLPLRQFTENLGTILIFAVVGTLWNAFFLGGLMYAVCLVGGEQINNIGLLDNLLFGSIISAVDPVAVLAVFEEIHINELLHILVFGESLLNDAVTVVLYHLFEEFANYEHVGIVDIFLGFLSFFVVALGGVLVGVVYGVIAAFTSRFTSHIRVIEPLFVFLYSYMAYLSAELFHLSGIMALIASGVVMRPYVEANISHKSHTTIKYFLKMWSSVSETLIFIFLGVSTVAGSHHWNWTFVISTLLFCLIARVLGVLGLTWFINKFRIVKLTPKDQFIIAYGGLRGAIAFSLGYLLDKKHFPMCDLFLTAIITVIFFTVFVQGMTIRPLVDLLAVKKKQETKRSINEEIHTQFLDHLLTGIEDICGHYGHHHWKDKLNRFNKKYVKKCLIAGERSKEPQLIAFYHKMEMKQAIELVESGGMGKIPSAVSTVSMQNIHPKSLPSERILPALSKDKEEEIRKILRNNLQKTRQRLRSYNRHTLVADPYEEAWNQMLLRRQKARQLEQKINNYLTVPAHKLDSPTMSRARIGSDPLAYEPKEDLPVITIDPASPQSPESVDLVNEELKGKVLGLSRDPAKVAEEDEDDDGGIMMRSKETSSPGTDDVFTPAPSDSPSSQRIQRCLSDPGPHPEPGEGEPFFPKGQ

Turning to `CN1Cc2c(Cl)cc(Cl)cc2[C@H](c2cccc(S(=O)(=O)NCCOCCOCCNC(=O)Nc3ccc(NC(=O)NCCOCCOCCNS(=O)(=O)c4cccc([C@@H]5CN(C)Cc6c(Cl)cc(Cl)cc65)c4)cc3)c2)C1` [Cpd 003], at Human NHE3 [1], the “Human NHE3 pIC50 Persistent” value was 8.1. Further, the “Human NHE3 pIC50 Prompt” value at Human NHE3 [2] (Table E5, 001 free base, 002-005 dihydrochloride salt) worked out at 8. The “pIC50 Prompt” value on Human NHE3 [2] is 8. Besides, on Rat NHE3, the “Rat NHE3 pIC50 Prompt” value amounted to 8.6. The “effect on urinary Na (UNa)” value in test [3] (in words) is “significant reduction in UNa”. Moreover, the “UNa (%)” value in test [3] (single oral dose 1 mg/kg) is 22 @ 1 mg/kg %. In addition, the “Pi uptake after 33P oral challenge” value in test [4] was “reducing Pi uptake”. For the same compound, the “Pi uptake after 33P oral challenge in the presence of Ca” value in test [4] (4 mM Ca, FIG. 1C) was “significantly reduced Pi uptake”. Also, the “Pi uptake after 33P oral challenge in the presence of glucose/Ca” value in test [4] (75 mM glucose + 4 mM Ca, FIG. 1B) is “significantly reduced Pi uptake”. Moreover, the “effect on fecal form” value in test [5] (in words) is “change in fecal form”.
As to `CN1Cc2c(Cl)cc(Cl)cc2[C@@H](c2cccc(S(=O)(=O)NCCOCCOCCNC(=O)NCCCCNC(=O)NCCOCCOCCNS(=O)(=O)c3cccc([C@@H]4CN(C)Cc5c(Cl)cc(Cl)cc54)c3)c2)C1` [Cpd 005], the IC50 on Human NHE3 [2] (Table E5, 001 free base, 002-005 dihydrochloride salt, read-out: Human NHE3 pIC50 Prompt (converted)) was more than 10 µM. In addition, the “pIC50 Prompt” value against Human NHE3 [2] is on record as less than 5.0. For the same compound, the “Rat NHE3 pIC50 Prompt” value at Rat NHE3 was less than 5.0. Moreover, the “UNa (%)” value in test [3] (single oral dose 10 mg/kg) is reported as 90 @ 10 mg/kg %. Further, the “Pi uptake after 33P oral challenge” value in test [4] is “inactive”.
Consider `C/C(=C\c1cccc(/C=C(\C)C(=O)NC(=N)N)c1)C(=O)N=C(N)N` [S-2120], for which the “selectivity: more active against NHE-1 than NHE3” value at NHE-1 is reported as “over 500 fold”.
Turning to `CN(C)[C@H]1Cc2c(Cl)cc(Cl)cc2[C@@H]1Oc1ccc(S(=O)(=O)NCCOCCOCCNC(=O)CCC(C)(N)CCC(=O)NCCOCCOCCNS(=O)(=O)c2ccc(O[C@H]3c4cc(Cl)cc(Cl)c4C[C@@H]3N(C)C)cc2)cc1` [compound 174], the “Prompt Human NHE3 pIC50” value at Human NHE3 [2] is 8.53. The “Prompt Rat NHE3 pIC50” value on Rat NHE3 is on record as 8.60. Also, the “Urine P % of control” value is 55% in test [6] (dose 3 mg/kg) and 61% in test [6] (dose 10 mg/kg). Moreover, the “Urine Na % of control” value is given as 37% in test [3] (dose 3 mg/kg) and 49% in test [3] (dose 10 mg/kg). Besides, the “Fecal Form Score average” value in test [5] (dose 3 mg/kg) and in test [5] (dose 10 mg/kg) was 1 each time.
For the compound `CN1Cc2c(Cl)cc(Cl)cc2[C@H](c2cccc(S(=O)(=O)NCCOCCOCCN(C)C(=O)CCC(N)(CCC(=O)N(C)CCOCCOCCNS(=O)(=O)c3cccc([C@@H]4CN(C)Cc5c(Cl)cc(Cl)cc54)c3)CCC(=O)N(C)CCOCCOCCNS(=O)(=O)c3cccc([C@@H]4CN(C)Cc5c(Cl)cc(Cl)cc54)c3)c2)C1` [compound 175], the “Prompt Human NHE3 pIC50” value at Human NHE3 [2] is 7.40. In addition, the “Prompt Rat NHE3 pIC50” value on Rat NHE3 was found to be 7.80. Further, in test [6] (dose 3 mg/kg), the “Urine P % of control” value is listed as 48%. For the same compound, in test [3] (dose 3 mg/kg), the “Urine Na % of control” value is given as 102%. The “Fecal Form Score average” value in test [5] (dose 3 mg/kg) is 1.
The like results for `CN(C)CC(=O)NC(CCC(=O)N(C)CCOCCOCCNS(=O)(=O)c1cccc([C@@H]2CN(C)Cc3c(Cl)cc(Cl)cc32)c1)(CCC(=O)N(C)CCOCCOCCNS(=O)(=O)c1cccc([C@@H]2CN(C)Cc3c(Cl)cc(Cl)cc32)c1)CCC(=O)N(C)CCOCCOCCNS(=O)(=O)c1cccc([C@@H]2CN(C)Cc3c(Cl)cc(Cl)cc32)c1` [compound 176] were, in that order, 7.40, 7.50, 92%, 73% and 1.
The like results for `CN1Cc2c(Cl)cc(Cl)cc2[C@H](c2cccc(S(=O)(=O)NCCOCCOCCN(C)C(=O)CCC(CCC(=O)N(C)CCOCCOCCNS(=O)(=O)c3cccc([C@@H]4CN(C)Cc5c(Cl)cc(Cl)cc54)c3)(CCC(=O)N(C)CCOCCOCCNS(=O)(=O)c3cccc([C@@H]4CN(C)Cc5c(Cl)cc(Cl)cc54)c3)NC(=O)COCC(=O)O)c2)C1` [compound 177] were, in that order, 7.80, 7.70, 45%, 52% and 2.
Regarding `CN1Cc2c(Cl)cc(Cl)cc2[C@H](c2cccc(S(=O)(=O)NCCOCCOCCNC(=O)CCC(CCC(=O)NCCOCCOCCNS(=O)(=O)c3cccc([C@@H]4CN(C)Cc5c(Cl)cc(Cl)cc54)c3)(CCC(=O)NCCOCCOCCNS(=O)(=O)c3cccc([C@@H]4CN(C)Cc5c(Cl)cc(Cl)cc54)c3)NC(=O)NC(CO)CO)c2)C1` [compound 178], the “Prompt Human NHE3 pIC50” value at Human NHE3 [2] stood at 7.33. For the same compound, the “Prompt Rat NHE3 pIC50” value at Rat NHE3 worked out at 7.10. Besides, the “Urine P % of control” value in test [6] (dose 3 mg/kg) is 46%. The “Urine Na % of control” value in test [3] (dose 3 mg/kg) was 18%. Also, the “Fecal Form Score average” value in test [5] (dose 3 mg/kg) came out at 3.
For the compound `CN(C)[C@H]1Cc2c(Cl)cc(Cl)cc2[C@@H]1Oc1ccc(S(=O)(=O)NCCOCCOCCNC(=O)CCC(C)(CCC(=O)NCCOCCOCCNS(=O)(=O)c2ccc(O[C@H]3c4cc(Cl)cc(Cl)c4C[C@@H]3N(C)C)cc2)NC(=O)CCC(=O)O)cc1` [compound 179], the “Prompt Human NHE3 pIC50” value at Human NHE3 [2] is given as 7.77. Further, the “Prompt Rat NHE3 pIC50” value on Rat NHE3 came out at 8.00. Moreover, the “Urine P % of control” value in test [6] (dose 3 mg/kg) is listed as 66%. The “Urine Na % of control” value in test [3] (dose 3 mg/kg) turned out to be 40%. For the same compound, the “Fecal Form Score average” value in test [5] (dose 3 mg/kg) worked out at 1.
As for `CN1Cc2c(Cl)cc(Cl)cc2[C@H](c2cccc(S(=O)(=O)NCCOCCOCCNC(=O)NCCCCNC(=O)NCCOCCOCCNS(=O)(=O)c3cccc([C@@H]4CN(C)Cc5c(Cl)cc(Cl)cc54)c3)c2)C1` [compound 180], on Human NHE3 [2], the “Prompt Human NHE3 pIC50” value is recorded as 8.30. The “Prompt Rat NHE3 pIC50” value at Rat NHE3 was 8.03. The “Urine P % of control” value worked out at 80% in test [6] (dose 0.03 mg/kg); 82% in test [6] (dose 0.1 mg/kg); 75% in test [6] (dose 0.3 mg/kg); 69% in test [6] (dose 1 mg/kg); 38% in test [6] (dose 3 mg/kg). Moreover, the “Urine Na % of control” value came to 67% in test [3] (dose 0.03 mg/kg); 45% in test [3] (dose 0.1 mg/kg); 33% in test [3] (dose 0.3 mg/kg); 15% in test [3] (dose 1 mg/kg); 53% in test [3] (dose 3 mg/kg). Moreover, the “Fecal Form Score average” value came to 1 in test [5] (dose 0.03 mg/kg); 1 in test [5] (dose 0.1 mg/kg); 3 in test [5] (dose 0.3 mg/kg); 3 in test [5] (dose 1 mg/kg); 4 in test [5] (dose 3 mg/kg).
